Results published in patent publication US9044487B2, “Hematopoietic neoplasm chemotherapy” (Eli Lilly and Company, priority 2009, dated 2015).
Where two headings read alike, the source gives them in different places.

Key:
[1] = tested on: MV4;11 leukemia xenografts; assay: Antitumor efficacy in MV4;11 leukemia xenografts; type: in vivo, female CD-1 nu/nu strain mice; conditions: vehicle control 233 ± 23.2
Description: Cultured cells (ATCC) are implanted subcutaneously in the rear flank of female CD-1 nu/nu strain mice which have been acclimated for one week in the animal facility after receipt from the vendor. […] The tumors are measured 2 times per week by electronic calipers to plot growth curves. Animals are also monitored for fluctuations in body weight and survival.

HEL 92.1.7 [2] = assay: Caspase 3 activity (Apo-ONE Homogeneous Caspase-3/7 Assay); type: cell-based, human; conditions: relative to untreated controls
Excerpt: (§1) Apoptosis or programmed cell death is characterized by a set of biochemical reactions, one of which is the induction of caspases. Activated caspases are proteases that participate in a cascade of cleavage events that disable key enzymes responsible for cell homeostasis and repair. Caspases 3 and 7 play key effector roles in apoptosis and can be detected and measured by a fluorescent biochemical assay. The increase of Caspase-3/7 activity in cells is directly correlated to apoptotic activity. (D. W. Nicholson, et al., Nature, 376, 37-43 (1995)) The Promega Apo-ONE Homogeneous Caspase-3/7 Assay Kit is used (Catalog #G7791). The assay buffer consists of 30 mM HEPES (N-(2-hydroxyethyl)piperazine-N′-(2-ethanesulfonic acid) pH 7.4, 150 mM NaCl, 50 mM KCl, 10 mM MgCl2, 0.4 mM EGTA (ethylene glycol tetraacetic acid), 0.5% Nonidet P40 (octylphenolpoly(ethyleneglycol ether)), 0.1% CHAPS (3-[(3-Cholamidopropyl)dimethylammonio]-1-propanesulfonate hydrate and 10% sucrose, which lyses/permeabilizes cultured cells and a caspase 3/7 substrate, Z-DEVD (Z-Asp(OMe)-Glu(OMe)-Val-Asp(OMe)), coupled to a profluorescent rhodamine 110. When the buffer-substrate mixture is added to a test sample, the cleavage and subsequent removal of the DEVD peptides by caspase 3/7 activity results in intense fluorescence of the rhodamine 110 leaving group, which is detected by excitation at 490 nm. The amount of fluorescent product is proportional to the amount of caspase 3/7 cleavage activity in the sample.
(§2) To measure the apoptotic effect of test compounds, tumor cells are plated at 1×10^4 cells per well in 96 well plates and incubated overnight at 37° C., with 5% CO2. Tumor cells are treated with test compound at desired concentrations in triplicate, including untreated/negative control wells. The assay plates are re-incubated for 48 hrs. At the end of the incubation period, a mixture of the assay buffer and substrate is added to each sample well. The fluorescence in each well is measured at an excitation wavelength of 480+/−20 nm and an emission wavelength of 530+/−25 nm. The % increase of caspase activity in treated cells is calculated relative to untreated controls.
(§3) MV4;11 is a human acute myeloid leukemia line characterized by the presence of a fusion transcript comprised of the MLL and AF4 genes and by the presence of an internal tandem duplication in the juxtamembrane region of the FLT-3 gene. RS4;11 is a human acute lymphoid leukemia cell line characterized by the presence of a fusion transcript comprised of the MLL and AF4 genes. REH is a human acute lymphoid leukemia (non-T; non-B) cell line characterized by the presence of a fusion transcript comprised of the TEL and AML1 genes. Kasumi 1 is a human acute myeloid leukemia line characterized by the presence of a fusion transcript comprised of the AML1 and ETO genes. K562 is a human chronic myelogenous leukemia cell line characterized by the presence of a fusion transcript comprised of the Bcr and Abl genes. HEL 92.1.7 is a human erythroleukemia cell line characterized by the presence of a V617F mutation in the JAK2 gene. Jurkatt is a human acute T-cell leukemia cell line. Each of the cell lines are obtained from the American Type Culture Collection (ATCC). In the following tables the term “Compound 1” or “Cmpd 1” means 7-(2,5-dihydro-4-imidazo[1,2-a]pyridine-3-yl-2,5-dioxo-1H-pyrrol-3-yl)-9-fluoro-1,2,3,4-tetrahydro-2-(1-piperidinyl-carbonyl)-pyrrolo[3,2,1-jk][1,4]benzodiazepine. The GSK-3 inhibitor [(3-(2,4-dichlorophenyl)-4-(1-methyl-1H-indol-3-yl)-1H-pyrrole-2,5-dione (SB216763), Sigma-Aldrich is used as a positive comparator control in some experiments. The compound GSK-3 Inhibitor IX, (2′Z,3′E)-6-bromoindirubin-3′-oxime (“GSK3-IX”) Calbiochem, is used as a positive control in some experiments. Both SB216763 and GSK3-IX are mentioned in the Wang et al., Nature, 455, 1205-1210 (2008) paper as evidencing positive results. […]

Jurkat [3] = assay: as above; type: cell-based, human; conditions: relative to untreated controls
Excerpt: as §1, §2, §3

K562 [4] = assay: as above; type: cell-based, human; conditions: relative to untreated controls
Excerpt: as §1, §2, §3

Kasumi 1 = assay: as above; type: cell-based, human; conditions: relative to untreated controls
Excerpt: as §1, §2, §3

MV4;11 [5] = assay: as above; type: cell-based, human; conditions: relative to untreated controls
Excerpt: as §1, §2, §3

REH [6] = assay: as above; type: cell-based, human; conditions: relative to untreated controls
Excerpt: as §1, §2, §3

RS4;11 [7] = assay: as above; type: cell-based, human; conditions: relative to untreated controls
Excerpt: as §1, §2, §3

HEL 92.1.7 [8] = assay: Reduction in cell viability (CellTiter-Glo Luminescent Cell Viability Assay); type: cell-based, human; conditions: 48 hrs, read-out: Reduction in cell viability after treatment - EC50 (mean of triplicates)
Description: (§4) Cell viability is determined by the CellTiter-Glo® Luminescent Cell Viability Assay (Promega, Catalog #G7570) which is a method of estimating viable cell number based on quantitation of ATP in metabolically active cells. After cells are lysed, the mono-oxygenation of the substrate luciferin is catalyzed by the enzyme luciferase in the presence of Mg2+, ATP and molecular oxygen, resulting in the generation of a luminescent signal that is proportional to the number of viable cells in the assay wells.
(§5) To measure the viability of cells after treatment with compounds, tumor cells are plated at 2×10^4 per well in 96 well plates and incubated overnight at 37° C., with 5% CO2. Tumor cells are treated with test compound at desired concentrations in triplicate, including untreated/negative control cells. The assay plates are re-incubated for 48 hrs. At the end of the incubation period, a mixture of lysis assay buffer and substrate is added to each sample well. The luminescence in each well is measured using a microtiter plate luminometer.
(§6) MV4;11 is a human acute myeloid leukemia line characterized by the presence of a fusion transcript comprised of the MLL and AF4 genes and by the presence of an internal tandem duplication in the juxtamembrane region of the FLT-3 gene. RS4;11 is a human acute lymphoid leukemia cell line characterized by the presence of a fusion transcript comprised of the MLL and AF4 genes. REH is a human acute lymphoid leukemia (non-T; non-B) cell line characterized by the presence of a fusion transcript comprised of the TEL and AML1 genes. Kasumi 1 is a human acute myeloid leukemia line characterized by the presence of a fusion transcript comprised of the AML1 and ETO genes. K562 is a human chronic myelogenous leukemia cell line characterized by the presence of a fusion transcript comprised of the Bcr and Abl genes. […] Jurkatt is a human acute T-cell leukemia cell line. Each of the cell lines are obtained from the American Type Culture Collection (ATCC).

Jurkat [9] = assay: as above; type: cell-based, human; conditions: 48 hrs, read-out: Reduction in cell viability after treatment - EC50 (mean of triplicates)
Description: as §4, §5, §6

K562 [10] = assay: as above; type: cell-based, human; conditions: 48 hrs, read-out: Reduction in cell viability after treatment - EC50 (mean of triplicates)
Description: as §4, §5, §6

Kasumi = assay: as above; type: cell-based, human; conditions: 48 hrs, read-out: Reduction in cell viability after treatment - EC50 (mean of triplicates)
Description: as §4, §5, §6

MV4;11 [11] = assay: as above; type: cell-based, human; conditions: 48 hrs, read-out: Reduction in cell viability after treatment - EC50 (mean of triplicates)
Description: as §4, §5, §6

REH [12] = assay: as above; type: cell-based, human; conditions: 48 hrs, read-out: Reduction in cell viability after treatment - EC50 (mean of triplicates)
Description: as §4, §5, §6

RS4;11 [13] = assay: as above; type: cell-based, human; conditions: 48 hrs, read-out: Reduction in cell viability after treatment - EC50 (mean of triplicates)
Description: as §4, §5, §6

For `Nc1ccn([C@@H]2O[C@H](CO)[C@@H](O)[C@@H]2O)c(=O)n1` [Arabinosylcytosine], the “Tumor Volume at day 33 Mean ± Standard Error” value ([1]; 30 mg/kg IP administered every day for 14 days) was 129 ± 11.2 mm^3.

In the case of `O=C1NC(=O)C(c2cnc3ccccn23)=C1c1cn2c3c(cc(F)cc13)CN(C(=O)N1CCCCC1)CC2` [Compound 1, 7-(2,5-dihydro-4-imidazo[1,2-a]pyridine-3-yl-2,5-dioxo-1H-pyrrol-3-yl)-9-fluoro-1,2,3,4-tetrahydro-2-(1-piperidinyl-carbonyl)-pyrrolo[3,2,1-jk][1,4]benzodiazepine], the “% Increase in Caspase 3 after treatment with Cmpd 1 (mean of triplicates)” value (“% Increase … with Cmpd 1 (mean of triplicates)” below) (HEL 92.1.7 [2]; 0.120 μM Compound 1, 48 hrs) is reported as 284%, the “% Increase … with Cmpd 1 (mean of triplicates)” value (Jurkat [3]; 0.370 μM Compound 1, 48 hrs) is reported as 140% and the “% Increase … with Cmpd 1 (mean of triplicates)” value (K562 [4]; 0.0007 μM Compound 1, 48 hrs) is reported as 1057%. The “% Increase … with Cmpd 1 (mean of triplicates)” value (Kasumi 1; 0.370 μM Compound 1, 48 hrs) was 133%, the “% Increase … with Cmpd 1 (mean of triplicates)” value (MV4;11 [5]; 0.010 μM Compound 1, 48 hrs) was 188% and the “% Increase … with Cmpd 1 (mean of triplicates)” value (REH [6]; 0.0007 μM Compound 1, 48 hrs) was 132%. The “% Increase … with Cmpd 1 (mean of triplicates)” value (RS4;11 [7]; 0.009 μM Compound 1, 48 hrs) was 111%, the EC50 (HEL 92.1.7 [8]; Homo sapiens) was 34 nM and the EC50 (Jurkat [9]; Homo sapiens) was 46 nM. It also gave an EC50 (K562 [10]; Homo sapiens) of 46 nM, an EC50 (Kasumi; Homo sapiens) of 16 nM and an EC50 (MV4;11 [11]; Homo sapiens) of 82 nM. The EC50 (REH [12]; Homo sapiens) was 6 nM, the EC50 (RS4;11 [13]; Homo sapiens) was 5 nM and the “Tumor Volume at day 33 Mean ± Standard Error” value ([1]; 0.1 mg/kg IV administered twice a week, 6 cycles) was 189 ± 22.3 mm^3. For the same compound, the “Tumor Volume at day 33 Mean ± Standard Error” value ([1]; 1 mg/kg IV administered twice a week, 6 cycles) was 154 ± 15 mm^3 and the “Tumor Volume at day 33 Mean ± Standard Error” value ([1]; 5 mg/kg IV administered once a week, three cycles) was 167 ± 11.7 mm^3.

`O=C1Nc2cc(Br)ccc2/C1=C1/Nc2ccccc2/C1=N\O` [GSK3-IX, (2′Z,3′E)-6-bromoindirubin-3′-oxime] was tested, and the EC50 (HEL 92.1.7 [8]) was over 3300 nM, the EC50 (Jurkat [9]) was over 3300 nM and the EC50 (K562 [10]) was over 3300 nM. The EC50 (Kasumi) was 1200 nM, the EC50 (MV4;11 [11]) was 200 nM and the EC50 (REH [12]) was 1100 nM. It also gave an EC50 (RS4;11 [13]) of 300 nM.

For `Cn1cc(C2=C(c3ccc(Cl)cc3Cl)C(=O)NC2=O)c2ccccc21` [SB216763, 3-(2,4-dichlorophenyl)-4-(1-methyl-1H-indol-3-yl)-1H-pyrrole-2,5-dione], the “% Increase in Caspase 3 after treatment with SB216763 (mean of triplicates)” value (“% Increase … with SB216763 (mean of triplicates)” below) (HEL 92.1.7 [2]; 10 μM SB216763, 48 hrs) was 250%, the “% Increase … with SB216763 (mean of triplicates)” value (Jurkat [3]; 10 μM SB216763, 48 hrs) was 101% and the “% Increase … with SB216763 (mean of triplicates)” value (K562 [4]; 20 μM SB216763, 48 hrs) was 223%. The “% Increase … with SB216763 (mean of triplicates)” value (Kasumi 1; 10 μM SB216763, 48 hrs) was 27%, the “% Increase … with SB216763 (mean of triplicates)” value (MV4;11 [5]; 30 μM SB216763, 48 hrs) was 83% and the “% Increase … with SB216763 (mean of triplicates)” value (REH [6]; 20 μM SB216763, 48 hrs) was 113%. For the same compound, the “% Increase … with SB216763 (mean of triplicates)” value (RS4;11 [7]; 20 μM SB216763, 48 hrs) was 117%, the EC50 (HEL 92.1.7 [8]; Homo sapiens) was 11300 nM and the EC50 (Jurkat [9]; Homo sapiens) was over 10000 nM. For the same compound, the EC50 (K562 [10]; Homo sapiens) was 20000 nM, the EC50 (Kasumi; Homo sapiens) was 10000 nM and the EC50 (MV4;11 [11]; Homo sapiens) was 12600 nM. For the same compound, the EC50 (REH [12]; Homo sapiens) was 4200 nM and the EC50 (RS4;11 [13]; Homo sapiens) was 4400 nM.
